In PubChem BioAssay AID248 (DTP/NCI, 2004):
Toxic doses and inconclusive results are not listed. Rule as the data show it: active = T/C of 150% or more; inactive = T/C below 125%.

System: L1210 leukemia ip in BDF1 mice, survival T/C
Experiment: NCI In Vivo Anticancer Drug Screen. Data for tumor model L1210 Leukemia (intraperitoneal) in B6D2F1 (BDF1) mice
Conditions: endpoint: mean survival time, higher = longer survival
Procedure, shortened: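 Mice bearing the transplanted tumor received compound or vehicle. Survival of the treated group was divided by that of the vehicle-treated control group to give the ratio.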

[1] = dose: 100.0 mg/kg/injection, schedule: Q01DX001 (ip), vehicle: carboxymethylcellulose (CMC)
[2] = dose: 200.0 mg/kg/injection, schedule: Q01DX001 (ip), vehicle: carboxymethylcellulose (CMC)
[3] = dose: 400.0 mg/kg/injection, schedule: Q01DX001 (ip), vehicle: carboxymethylcellulose (CMC)
[4] = dose: 100.0 mg/kg/injection, schedule: Q04DX003 (ip), vehicle: saline
[5] = dose: 200.0 mg/kg/injection, schedule: Q04DX003 (ip), vehicle: saline
[6] = dose: 400.0 mg/kg/injection, schedule: Q04DX003 (ip), vehicle: saline
[7] = dose: 50.0 mg/kg/injection, schedule: Q01DX009 (ip), vehicle: saline
[8] = dose: 100.0 mg/kg/injection, schedule: Q01DX009 (ip), vehicle: saline
[9] = dose: 200.0 mg/kg/injection, schedule: Q01DX009 (ip), vehicle: saline
[10] = dose: 100.0 mg/kg/injection, schedule: Q04DX003 (ip), vehicle: saline with Tween-80
[11] = dose: 200.0 mg/kg/injection, schedule: Q04DX003 (ip), vehicle: saline with Tween-80
[12] = dose: 400.0 mg/kg/injection, schedule: Q04DX003 (ip), vehicle: saline with Tween-80

Measured: T/C

O=C(NC(Cc1ccccc1)C(=O)N1CCCCC1)c1ccccc1 (stereo not given)
inactive: [1] 101 % of control | [2] 92 % of control | [3] 90 % of control

CCCNP(=O)(NCCC)OC1CC(C)(C)N(O)C(C)(C)C1
inactive: dose: 100.0 mg/kg/injection, schedule: Q04DX002 (ip), vehicle: water 90 % of control | dose: 200.0 mg/kg/injection, schedule: Q04DX002 (ip), vehicle: water 87 % of control | dose: 400.0 mg/kg/injection, schedule: Q04DX002 (ip), vehicle: water 97 % of control

ClCC(Br)CBr (stereo not given)
inactive: dose: 75.0 mg/kg/injection, schedule: Q01DX001 (ip), vehicle: saline 106 % of control | dose: 150.0 mg/kg/injection, schedule: Q01DX001 (ip), vehicle: saline 104 % of control

Cc1cc(C)c(SC2c3ccccc3-c3ccccc32)c(C)c1
inactive: dose: 75.0 mg/kg/injection, schedule: Q01DX009 (ip), vehicle: saline with Tween-80 95 % of control | dose: 150.0 mg/kg/injection, schedule: Q01DX009 (ip), vehicle: saline with Tween-80 102 % of control | dose: 300.0 mg/kg/injection, schedule: Q01DX009 (ip), vehicle: saline with Tween-80 96 % of control

CN(CC(=O)O)C(=O)CN=Cc1ccccc1
inactive: [4] 96 % of control | [5] 97 % of control | [6] 97 % of control

Cc1nn(C2CC(OC(=O)c3ccc([N+](=O)[O-])cc3)C(OC(=O)c3ccc([N+](=O)[O-])cc3)C(COC(=O)c3ccc([N+](=O)[O-])cc3)O2)c(=O)[nH]c1=O (stereo not given)
inactive: dose: 100.0 mg/kg/injection, schedule: Q01DX005 (ip), vehicle: saline 100 % of control | dose: 200.0 mg/kg/injection, schedule: Q01DX005 (ip), vehicle: saline 96 % of control

ClC1C(Cl)C(Cl)C(Cl)C(Cl)C1Cl (stereo not given)
inactive: [7] 103 % of control | [8] 103 % of control | [9] 108 % of control

OCCNCc1ccc2ccccc2n1
inactive: dose: 75.0 mg/kg/injection, schedule: Q04DX003 (ip), vehicle: saline 96 % of control | dose: 150.0 mg/kg/injection, schedule: Q04DX003 (ip), vehicle: saline 100 % of control | dose: 300.0 mg/kg/injection, schedule: Q04DX003 (ip), vehicle: saline 96 % of control

COc1cc2c(c(OC)c1OC)-c1ccc(OC)c(=O)cc1C(NC(=S)Nc1ccccc1)CC2 (stereo not given)
inactive: dose: 62.5 mg/kg/injection, schedule: Q01DX009 (ip), vehicle: other 104 % of control | dose: 125.0 mg/kg/injection, schedule: Q01DX009 (ip), vehicle: other 98 % of control | dose: 250.0 mg/kg/injection, schedule: Q01DX009 (ip), vehicle: other 103 % of control

CC1=C(CC/C(C)=C/CCC(=O)O)C(C)(C)CCC1
inactive: [7] 100 % of control | [8] 100 % of control | [4] 116 % of control | [9] 98 % of control | [5] 100 % of control | [6] 111 % of control

CCCCCCC12CCC(O)C1(CCCCCCC(=O)O)O2 (stereo not given)
inactive: dose: 50.0 mg/kg/injection, schedule: Q04DX002 (ip), vehicle: saline 95 % of control | dose: 100.0 mg/kg/injection, schedule: Q04DX002 (ip), vehicle: saline 102 % of control | dose: 200.0 mg/kg/injection, schedule: Q04DX002 (ip), vehicle: saline 91 % of control

O=C(Nc1cccnc1)c1ccccc1
inactive: dose: 6.25 mg/kg/injection, schedule: Q04DX003 (ip), vehicle: saline with Tween-80 92 % of control | dose: 12.5 mg/kg/injection, schedule: Q04DX003 (ip), vehicle: saline with Tween-80 97 % of control | dose: 25.0 mg/kg/injection, schedule: Q04DX003 (ip), vehicle: saline with Tween-80 99 % of control

C=C(C)COc1c(CCC)cc(C)cc1NC(C)=O
inactive: [10] 106 % of control | [11] 97 % of control | [12] 104 % of control

Cc1ccc(C(=O)CCCCCC(=O)c2ccc(C)cc2O)c(O)c1
inactive: dose: 100.0 mg/kg/injection, schedule: Q01DX001 (ip), vehicle: Klucel (hydroxypropylcellulose) (HPC) 98 % of control | dose: 200.0 mg/kg/injection, schedule: Q01DX001 (ip), vehicle: Klucel (hydroxypropylcellulose) (HPC) 98 % of control | dose: 400.0 mg/kg/injection, schedule: Q01DX001 (ip), vehicle: Klucel (hydroxypropylcellulose) (HPC) 95 % of control

O=C(Nc1ccccc1C(F)(F)F)N(Cc1ccccc1)Cc1ccccc1
inactive: dose: 100.0 mg/kg/injection, schedule: Q01DX009 (ip), vehicle: Klucel (hydroxypropylcellulose) (HPC) 101 % of control | dose: 200.0 mg/kg/injection, schedule: Q01DX009 (ip), vehicle: Klucel (hydroxypropylcellulose) (HPC) 87 % of control | dose: 400.0 mg/kg/injection, schedule: Q01DX009 (ip), vehicle: Klucel (hydroxypropylcellulose) (HPC) 95 % of control

CC1(C)OC(CO)C2OC(C)(C)OC(CO)C2O1 (stereo not given)
inactive: [1] 98 % of control | [2] 98 % of control | [3] 95 % of control

OCC1CCN1C(c1ccccc1)c1ccccc1 (stereo not given)
inactive: dose: 100.0 mg/kg/injection, schedule: Q04DX002 (ip), vehicle: saline with Tween-80 93 % of control | dose: 200.0 mg/kg/injection, schedule: Q04DX002 (ip), vehicle: saline with Tween-80 86 % of control

CC(C)(C)CC(=O)CC(C)(C)C
inactive: dose: 100.0 mg/kg/injection, schedule: Q01DX001 (ip), vehicle: saline 98 % of control | dose: 200.0 mg/kg/injection, schedule: Q01DX001 (ip), vehicle: saline 87 % of control | dose: 400.0 mg/kg/injection, schedule: Q01DX001 (ip), vehicle: saline 98 % of control

Cc1nc(SCc2ccccc2)[nH]c(=O)c1CC(C)O (stereo not given)
inactive: dose: 100.0 mg/kg/injection, schedule: Q04DX003 (ip), vehicle: Klucel (hydroxypropylcellulose) (HPC) 104 % of control | dose: 200.0 mg/kg/injection, schedule: Q04DX003 (ip), vehicle: Klucel (hydroxypropylcellulose) (HPC) 97 % of control | dose: 400.0 mg/kg/injection, schedule: Q04DX003 (ip), vehicle: Klucel (hydroxypropylcellulose) (HPC) 104 % of control

C=C(CCCCC)C(=O)/C=C/c1ccc(Cl)c(Cl)c1
inactive: dose: 12.5 mg/kg/injection, schedule: Q04DX002 (ip), vehicle: DMSO 101 % of control | dose: 25.0 mg/kg/injection, schedule: Q04DX002 (ip), vehicle: DMSO 114 % of control | dose: 50.0 mg/kg/injection, schedule: Q04DX002 (ip), vehicle: DMSO 104 % of control

COc1ccc(NC(=O)Nc2cc(C(F)(F)F)ccc2Cl)cc1
inactive: [10] 88 % of control | [11] 91 % of control | [12] 86 % of control

CC(=O)OC1CCC2(C)C(=CC(=O)C3C2CCC2(C)C(C(C)CCCC(C)C)CCC32)C1 (stereo not given)
inactive: dose: 100.0 mg/kg/injection, schedule: Q01DX009 (sc), vehicle: steriod suspending solution 108 % of control | dose: 100.0 mg/kg/injection, schedule: Q04DX003 (sc), vehicle: steriod suspending solution 91 % of control | dose: 200.0 mg/kg/injection, schedule: Q01DX009 (sc), vehicle: steriod suspending solution 110 % of control | dose: 200.0 mg/kg/injection, schedule: Q04DX003 (sc), vehicle: steriod suspending solution 91 % of control | dose: 400.0 mg/kg/injection, schedule: Q01DX009 (sc), vehicle: steriod suspending solution 115 % of control | dose: 400.0 mg/kg/injection, schedule: Q04DX003 (sc), vehicle: steriod suspending solution 102 % of control

COC(=O)CCCC(=O)c1[nH]c2ccccc2c1CC(=O)NCc1ccccc1
inactive: dose: 75.0 mg/kg/injection, schedule: Q01DX001 (ip), vehicle: alcohol 97 % of control | dose: 150.0 mg/kg/injection, schedule: Q01DX001 (ip), vehicle: alcohol 93 % of control | dose: 300.0 mg/kg/injection, schedule: Q01DX001 (ip), vehicle: alcohol 92 % of control

CCCCCCCCCCC(O)CCCCCCCCCC
inactive: dose: 100.0 mg/kg/injection, schedule: Q01DX009 (ip), vehicle: saline with Tween-80 96 % of control | dose: 200.0 mg/kg/injection, schedule: Q01DX009 (ip), vehicle: saline with Tween-80 105 % of control | dose: 400.0 mg/kg/injection, schedule: Q01DX009 (ip), vehicle: saline with Tween-80 93 % of control
